Assay results from ChEMBL document CHEMBL4507319 (2021).

Legend:
[1] = molecular target: Calcium/calmodulin-dependent protein kinase type II subunit gamma (Homo sapiens) (UniProt Q13555); settings: Compound concentration 1000.0 nM
[2] = molecular target: Calcium/calmodulin-dependent protein kinase type 1G (Homo sapiens) (UniProt Q96NX5); settings: Compound concentration 1000.0 nM
[3] = molecular target: T1, Phosphatidylinositol 3-kinase C2 domain-containing subunit gamma (Homo sapiens) (UniProt O75747); settings: Compound concentration 1000.0 nM
T1 sequence (whole entry): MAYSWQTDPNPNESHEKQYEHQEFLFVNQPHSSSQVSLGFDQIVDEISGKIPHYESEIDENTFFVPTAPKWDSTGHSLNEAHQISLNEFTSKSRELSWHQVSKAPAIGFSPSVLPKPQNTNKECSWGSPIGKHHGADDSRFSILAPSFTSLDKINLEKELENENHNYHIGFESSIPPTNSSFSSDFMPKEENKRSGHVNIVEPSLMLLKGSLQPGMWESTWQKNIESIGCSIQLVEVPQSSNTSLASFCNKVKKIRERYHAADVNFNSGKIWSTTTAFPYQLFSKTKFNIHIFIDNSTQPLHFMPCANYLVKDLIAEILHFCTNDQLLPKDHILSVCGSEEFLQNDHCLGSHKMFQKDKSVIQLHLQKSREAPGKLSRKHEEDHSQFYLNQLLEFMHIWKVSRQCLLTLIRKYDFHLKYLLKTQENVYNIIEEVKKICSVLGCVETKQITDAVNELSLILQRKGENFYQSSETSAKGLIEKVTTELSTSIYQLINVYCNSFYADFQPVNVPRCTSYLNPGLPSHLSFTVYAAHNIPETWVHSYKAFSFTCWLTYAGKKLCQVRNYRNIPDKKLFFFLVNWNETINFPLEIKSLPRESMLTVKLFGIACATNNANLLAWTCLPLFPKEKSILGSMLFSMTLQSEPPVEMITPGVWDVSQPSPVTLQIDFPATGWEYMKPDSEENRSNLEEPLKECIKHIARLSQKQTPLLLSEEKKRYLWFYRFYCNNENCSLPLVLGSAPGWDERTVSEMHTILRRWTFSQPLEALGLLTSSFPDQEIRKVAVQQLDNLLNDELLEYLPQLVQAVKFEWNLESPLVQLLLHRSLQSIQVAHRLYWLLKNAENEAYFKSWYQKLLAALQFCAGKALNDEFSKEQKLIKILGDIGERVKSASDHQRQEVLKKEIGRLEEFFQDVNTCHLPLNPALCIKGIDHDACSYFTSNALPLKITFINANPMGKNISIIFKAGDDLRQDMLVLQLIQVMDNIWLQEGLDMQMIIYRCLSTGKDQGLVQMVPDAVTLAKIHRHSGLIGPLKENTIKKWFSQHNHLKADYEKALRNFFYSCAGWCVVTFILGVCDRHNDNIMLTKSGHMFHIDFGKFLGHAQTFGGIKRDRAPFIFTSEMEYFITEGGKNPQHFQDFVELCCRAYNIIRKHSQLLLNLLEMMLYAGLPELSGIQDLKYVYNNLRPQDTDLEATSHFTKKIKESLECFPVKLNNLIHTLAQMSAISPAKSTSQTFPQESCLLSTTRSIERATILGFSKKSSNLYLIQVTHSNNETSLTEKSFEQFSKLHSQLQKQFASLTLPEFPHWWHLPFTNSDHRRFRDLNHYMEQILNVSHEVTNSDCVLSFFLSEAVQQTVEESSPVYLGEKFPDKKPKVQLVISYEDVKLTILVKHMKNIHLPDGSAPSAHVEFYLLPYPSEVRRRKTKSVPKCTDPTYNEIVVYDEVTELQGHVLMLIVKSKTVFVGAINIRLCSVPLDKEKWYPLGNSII

[4] = molecular target: Mitogen-activated protein kinase kinase kinase 6 (Homo sapiens) (UniProt O95382); settings: Compound concentration 1000.0 nM
[5] = molecular target: T2, Serine/threonine-protein kinase ULK3 (Homo sapiens) (UniProt Q6PHR2); settings: Compound concentration 1000.0 nM
T2 sequence (whole entry): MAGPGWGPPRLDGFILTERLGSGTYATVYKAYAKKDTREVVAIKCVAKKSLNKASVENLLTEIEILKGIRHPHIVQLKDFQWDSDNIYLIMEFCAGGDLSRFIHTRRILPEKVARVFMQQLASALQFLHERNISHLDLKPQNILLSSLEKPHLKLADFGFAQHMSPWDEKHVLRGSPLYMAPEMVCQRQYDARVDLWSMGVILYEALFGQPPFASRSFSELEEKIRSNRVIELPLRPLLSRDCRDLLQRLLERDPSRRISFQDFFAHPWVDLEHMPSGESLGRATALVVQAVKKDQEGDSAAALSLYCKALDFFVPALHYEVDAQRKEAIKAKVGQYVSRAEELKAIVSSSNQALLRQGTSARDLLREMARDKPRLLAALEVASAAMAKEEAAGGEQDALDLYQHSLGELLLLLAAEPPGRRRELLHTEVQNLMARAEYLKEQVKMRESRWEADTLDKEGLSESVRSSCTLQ

[6] = molecular target: Leucine-rich repeat serine/threonine-protein kinase 2 (Homo sapiens) (UniProt Q5S007); settings: Compound concentration 1000.0 nM
Sequence of Leucine-rich repeat serine/threonine-protein kinase 2 (Homo sapiens) (Q5S007 whole entry): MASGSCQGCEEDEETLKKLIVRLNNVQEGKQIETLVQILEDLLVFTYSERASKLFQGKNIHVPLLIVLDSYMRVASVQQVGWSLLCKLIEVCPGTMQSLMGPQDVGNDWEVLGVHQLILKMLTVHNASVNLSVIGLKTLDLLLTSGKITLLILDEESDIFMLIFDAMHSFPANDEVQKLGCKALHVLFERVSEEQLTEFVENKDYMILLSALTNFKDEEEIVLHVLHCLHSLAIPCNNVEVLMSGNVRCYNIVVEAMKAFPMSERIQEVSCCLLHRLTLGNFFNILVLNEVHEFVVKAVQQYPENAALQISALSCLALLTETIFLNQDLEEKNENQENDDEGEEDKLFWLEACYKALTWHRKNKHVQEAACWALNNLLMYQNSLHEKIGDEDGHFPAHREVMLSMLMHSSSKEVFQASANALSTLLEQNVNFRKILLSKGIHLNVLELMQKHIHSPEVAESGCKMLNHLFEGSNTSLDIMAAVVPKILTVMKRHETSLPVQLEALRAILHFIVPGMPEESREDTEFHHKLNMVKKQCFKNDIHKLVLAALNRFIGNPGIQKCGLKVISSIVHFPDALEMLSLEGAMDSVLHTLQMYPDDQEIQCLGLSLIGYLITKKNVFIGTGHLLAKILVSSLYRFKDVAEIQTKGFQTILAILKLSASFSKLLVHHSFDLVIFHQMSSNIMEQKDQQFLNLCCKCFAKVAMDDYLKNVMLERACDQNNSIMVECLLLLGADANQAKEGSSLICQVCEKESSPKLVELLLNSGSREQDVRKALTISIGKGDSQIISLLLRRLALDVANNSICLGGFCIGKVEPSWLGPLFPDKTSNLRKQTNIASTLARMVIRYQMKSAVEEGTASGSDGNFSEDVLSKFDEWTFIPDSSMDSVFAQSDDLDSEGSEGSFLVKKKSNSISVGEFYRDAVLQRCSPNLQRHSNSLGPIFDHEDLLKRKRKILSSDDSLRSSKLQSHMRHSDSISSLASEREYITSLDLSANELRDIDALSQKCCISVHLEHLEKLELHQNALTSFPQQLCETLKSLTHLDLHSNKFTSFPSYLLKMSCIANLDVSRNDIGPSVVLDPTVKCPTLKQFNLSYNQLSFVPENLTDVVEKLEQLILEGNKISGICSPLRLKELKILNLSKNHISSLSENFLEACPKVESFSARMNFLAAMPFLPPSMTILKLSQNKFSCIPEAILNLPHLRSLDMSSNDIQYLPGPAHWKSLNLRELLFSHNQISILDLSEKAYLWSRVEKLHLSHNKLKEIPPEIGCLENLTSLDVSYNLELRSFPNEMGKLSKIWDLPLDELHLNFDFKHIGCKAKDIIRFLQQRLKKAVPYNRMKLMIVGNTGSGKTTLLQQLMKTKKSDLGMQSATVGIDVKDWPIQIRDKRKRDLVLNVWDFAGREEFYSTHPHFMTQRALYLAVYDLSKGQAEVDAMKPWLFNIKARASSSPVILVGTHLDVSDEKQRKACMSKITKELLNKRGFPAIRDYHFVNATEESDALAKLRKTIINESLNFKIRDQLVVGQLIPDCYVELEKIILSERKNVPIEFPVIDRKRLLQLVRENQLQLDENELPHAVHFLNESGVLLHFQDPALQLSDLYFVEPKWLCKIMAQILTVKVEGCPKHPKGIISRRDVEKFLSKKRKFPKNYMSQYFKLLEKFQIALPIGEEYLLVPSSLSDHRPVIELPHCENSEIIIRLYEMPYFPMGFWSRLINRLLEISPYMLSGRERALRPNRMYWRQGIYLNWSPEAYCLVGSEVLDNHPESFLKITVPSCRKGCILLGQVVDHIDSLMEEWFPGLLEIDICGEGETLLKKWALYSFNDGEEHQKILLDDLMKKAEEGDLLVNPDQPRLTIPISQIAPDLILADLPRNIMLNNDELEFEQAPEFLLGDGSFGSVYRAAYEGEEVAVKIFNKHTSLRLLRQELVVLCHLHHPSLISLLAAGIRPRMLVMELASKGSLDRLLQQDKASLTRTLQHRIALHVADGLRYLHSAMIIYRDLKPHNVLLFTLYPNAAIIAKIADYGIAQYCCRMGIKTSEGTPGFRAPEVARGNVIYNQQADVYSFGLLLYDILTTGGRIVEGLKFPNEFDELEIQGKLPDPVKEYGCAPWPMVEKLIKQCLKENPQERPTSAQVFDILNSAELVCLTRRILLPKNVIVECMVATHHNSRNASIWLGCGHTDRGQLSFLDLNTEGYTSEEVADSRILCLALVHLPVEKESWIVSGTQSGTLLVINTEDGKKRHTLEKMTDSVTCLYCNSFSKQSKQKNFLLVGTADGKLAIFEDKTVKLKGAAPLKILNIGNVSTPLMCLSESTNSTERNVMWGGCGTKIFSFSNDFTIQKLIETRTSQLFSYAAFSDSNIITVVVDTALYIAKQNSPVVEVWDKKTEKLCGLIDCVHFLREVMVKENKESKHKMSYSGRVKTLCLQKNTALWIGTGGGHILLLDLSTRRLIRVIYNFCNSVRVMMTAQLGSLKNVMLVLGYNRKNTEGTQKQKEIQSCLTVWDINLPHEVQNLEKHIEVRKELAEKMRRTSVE

[7] = molecular target: Tyrosine-protein kinase Lck (Homo sapiens) (UniProt P06239); settings: Compound concentration 1000.0 nM
Sequence of Tyrosine-protein kinase Lck (Homo sapiens) (P06239 2-509 limits assumed): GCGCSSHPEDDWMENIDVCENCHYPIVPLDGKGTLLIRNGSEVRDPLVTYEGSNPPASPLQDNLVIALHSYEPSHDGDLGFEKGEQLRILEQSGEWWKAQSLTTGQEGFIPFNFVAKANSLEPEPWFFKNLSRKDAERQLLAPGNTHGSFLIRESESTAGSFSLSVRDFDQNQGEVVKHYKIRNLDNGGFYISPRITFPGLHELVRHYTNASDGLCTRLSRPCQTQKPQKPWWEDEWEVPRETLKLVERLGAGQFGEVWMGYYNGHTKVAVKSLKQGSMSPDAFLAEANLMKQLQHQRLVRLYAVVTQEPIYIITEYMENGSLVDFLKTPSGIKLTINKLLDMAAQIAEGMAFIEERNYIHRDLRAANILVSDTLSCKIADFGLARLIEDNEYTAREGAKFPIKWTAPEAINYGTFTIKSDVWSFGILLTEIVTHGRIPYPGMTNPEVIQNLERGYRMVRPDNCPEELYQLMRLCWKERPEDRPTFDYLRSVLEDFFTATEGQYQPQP

[8] = molecular target: 5-hydroxytryptamine receptor 1D (Homo sapiens) (UniProt P28221); settings: Compound concentration 10.0 uM
Sequence of 5-hydroxytryptamine receptor 1D (Homo sapiens) (P28221 whole entry): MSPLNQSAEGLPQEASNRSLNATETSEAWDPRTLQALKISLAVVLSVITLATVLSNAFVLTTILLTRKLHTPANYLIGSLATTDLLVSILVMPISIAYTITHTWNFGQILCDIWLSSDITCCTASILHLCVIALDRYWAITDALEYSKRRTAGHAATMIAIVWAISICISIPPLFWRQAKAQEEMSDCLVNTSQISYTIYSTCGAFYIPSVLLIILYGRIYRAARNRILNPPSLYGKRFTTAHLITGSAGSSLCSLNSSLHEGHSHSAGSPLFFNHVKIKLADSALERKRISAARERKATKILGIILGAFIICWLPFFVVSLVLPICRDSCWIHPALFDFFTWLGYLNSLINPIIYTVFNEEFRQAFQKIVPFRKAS

[9] = molecular target: T3, Activin receptor type-1 (Homo sapiens) (UniProt Q04771); settings: Compound concentration 1000.0 nM
T3 sequence (whole entry): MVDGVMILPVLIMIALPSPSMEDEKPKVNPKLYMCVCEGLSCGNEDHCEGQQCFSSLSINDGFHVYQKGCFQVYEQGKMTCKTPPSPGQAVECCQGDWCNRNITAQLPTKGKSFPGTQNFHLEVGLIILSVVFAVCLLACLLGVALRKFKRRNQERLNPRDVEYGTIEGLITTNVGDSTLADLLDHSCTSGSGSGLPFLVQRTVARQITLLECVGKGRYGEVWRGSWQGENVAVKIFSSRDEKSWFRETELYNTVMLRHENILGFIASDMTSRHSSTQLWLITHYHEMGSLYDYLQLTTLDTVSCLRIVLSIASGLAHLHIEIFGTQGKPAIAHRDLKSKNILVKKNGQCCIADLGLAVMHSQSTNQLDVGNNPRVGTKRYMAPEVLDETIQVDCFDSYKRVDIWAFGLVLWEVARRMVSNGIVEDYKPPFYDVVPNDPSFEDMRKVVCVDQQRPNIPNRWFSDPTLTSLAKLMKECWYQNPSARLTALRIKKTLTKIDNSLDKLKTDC

[10] = molecular target: Dual serine/threonine and tyrosine protein kinase (Homo sapiens) (UniProt Q6XUX3); settings: Compound concentration 1000.0 nM
Sequence of Dual serine/threonine and tyrosine protein kinase (Homo sapiens) (Q6XUX3 whole entry): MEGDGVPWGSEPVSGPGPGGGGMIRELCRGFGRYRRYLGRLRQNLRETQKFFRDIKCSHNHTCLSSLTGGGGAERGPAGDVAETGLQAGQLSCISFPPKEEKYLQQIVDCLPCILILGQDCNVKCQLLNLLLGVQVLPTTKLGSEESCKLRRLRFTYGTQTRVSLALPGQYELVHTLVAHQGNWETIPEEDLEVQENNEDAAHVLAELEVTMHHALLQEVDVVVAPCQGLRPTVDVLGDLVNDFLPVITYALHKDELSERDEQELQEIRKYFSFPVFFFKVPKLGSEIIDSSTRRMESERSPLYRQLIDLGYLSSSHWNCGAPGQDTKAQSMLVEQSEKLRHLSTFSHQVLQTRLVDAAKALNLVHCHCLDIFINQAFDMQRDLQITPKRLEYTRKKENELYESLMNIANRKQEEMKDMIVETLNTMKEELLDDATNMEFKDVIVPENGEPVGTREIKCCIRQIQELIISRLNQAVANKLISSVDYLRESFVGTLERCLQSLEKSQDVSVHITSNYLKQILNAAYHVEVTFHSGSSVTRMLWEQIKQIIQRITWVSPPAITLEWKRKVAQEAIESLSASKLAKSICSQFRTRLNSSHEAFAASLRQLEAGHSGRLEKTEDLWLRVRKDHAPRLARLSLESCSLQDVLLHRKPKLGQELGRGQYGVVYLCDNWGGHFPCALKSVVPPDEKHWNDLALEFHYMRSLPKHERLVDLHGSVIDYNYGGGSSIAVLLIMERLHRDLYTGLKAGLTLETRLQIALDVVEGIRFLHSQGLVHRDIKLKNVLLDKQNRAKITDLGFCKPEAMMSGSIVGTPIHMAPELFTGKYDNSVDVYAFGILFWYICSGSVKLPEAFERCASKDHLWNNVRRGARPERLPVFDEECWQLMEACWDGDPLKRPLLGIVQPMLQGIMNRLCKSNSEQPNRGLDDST

[11] = molecular target: Ribosomal protein S6 kinase alpha-6 (Homo sapiens) (UniProt Q9UK32); settings: Compound concentration 1000.0 nM
[12] = molecular target: Cyclin-dependent kinase-like 5 (Homo sapiens) (UniProt O76039); settings: Compound concentration 1000.0 nM

Sequence of Calcium/calmodulin-dependent protein kinase type 1G (Homo sapiens) (Q96NX5 whole entry, the tested form may be a part): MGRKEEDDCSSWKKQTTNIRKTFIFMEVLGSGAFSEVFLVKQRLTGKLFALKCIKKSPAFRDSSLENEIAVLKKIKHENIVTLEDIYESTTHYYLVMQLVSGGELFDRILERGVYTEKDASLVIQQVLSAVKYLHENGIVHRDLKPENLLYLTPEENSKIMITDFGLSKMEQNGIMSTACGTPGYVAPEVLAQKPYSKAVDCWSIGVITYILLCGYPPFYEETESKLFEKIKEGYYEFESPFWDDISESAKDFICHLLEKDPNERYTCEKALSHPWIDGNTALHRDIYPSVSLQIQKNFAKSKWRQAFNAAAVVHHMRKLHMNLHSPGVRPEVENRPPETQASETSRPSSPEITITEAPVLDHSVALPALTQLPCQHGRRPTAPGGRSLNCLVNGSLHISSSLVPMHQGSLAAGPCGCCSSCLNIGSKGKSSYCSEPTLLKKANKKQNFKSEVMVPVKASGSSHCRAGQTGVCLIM

CCc1ccccc1C(=O)Nc1n[nH]c2c(C)c(F)c(C3C(C#N)=C(C)N(C)C(C)=C3C#N)cc12 [BAY-3827]
inactive: residual activity [1] 79% | residual activity [2] 90% | residual activity [3] 95% | residual activity [4] 100% | residual activity [5] 82% | residual activity [6] 100% | residual activity [7] 100% | inhibition [8] 4.65% | residual activity [9] 100% | residual activity [10] 95% | residual activity [11] 100% | residual activity [12] 100%

CC1=C(C#N)C(c2ccc3c(c2)c(NC(=O)c2ccccc2C)nn3C)C(C#N)=C(C)N1 [BAY-974]
inactive: residual activity [1] 100% | residual activity [2] 99% | residual activity [3] 61% | residual activity [4] 71% | residual activity [5] 84% | residual activity [6] 88% | residual activity [7] 81% | inhibition [8] 2.45% | residual activity [9] 99% | residual activity [10] 72% | residual activity [11] 83% | residual activity [12] 79%
